Test results reported in US12102630B2 (Synthon B.V., priority 2018, dated 2024).

Assay: gel formation in contact with water / dissolution media
Assay type: physicochemical
Conditions: solid forms
From the text: The marketed product comprises lenvatinib mesylate. It is known that the lenvatinib mesylate salt gelifies when in contact with dissolution media, this may cause a delay in its release. EP1797881 discloses a pharmaceutical composition that solved the above problems using an alkaline excipient with a pH of 8 a 5% w/w aqueous solution to reduce the degradation of the active substance and silicic acid to inhibit gelation. Sodium carbonates are described as suitable alkaline excipient.
Gelification limits the dissolution of API and can influence bioavailability of the drug.

## lenvatinib besylate
  tendency to form a gel when in contact with water: don't tend to form a gel
